Assay results reported in PubChem BioAssay (NCI).
“And” between values parts separate entries of the source, which are not always exact repeats. Equal values may be shown once.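 In this assay, cells in 96-well plates receive the compound at five concentrations for 48 hours. Endpoints are linearly interpolated between the surrounding concentrations. The concentration for 50% growth inhibition is given as GI50. TGI: concentration producing complete growth inhibition.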

Key:
Test in all cases: growth of human tumour cells (NCI), 48 h
786-0 renal = test system: 786-0 renal
A498 renal = test system: A498 renal
CCRF-CEM leukemia = test system: CCRF-CEM leukemia
HOP-92 NSCLC = test system: HOP-92 NSCLC
K-562 leukemia = test system: K-562 leukemia
NCI-H460 lung = test system: NCI-H460 lung
RPMI-8226 leukemia = test system: RPMI-8226 leukemia
SF-295 CNS = test system: SF-295 CNS
SW-620 colon = test system: SW-620 colon
TK-10 renal = test system: TK-10 renal

SMILES: NS(=O)(=O)c1ccc(N2N=C3c4ccccc4CC3C2c2ccc(Cl)cc2)cc1 (stereo not drawn)
- GI50 (786-0 renal): 6.28 µM
- TGI (786-0 renal): 24.9 µM
- GI50 (A498 renal): 2.55 µM
- TGI (A498 renal): 6.6 µM
- GI50 (CCRF-CEM leukemia): 6.48 µM
- TGI (CCRF-CEM leukemia): 42.4 µM
- GI50 (HOP-92 NSCLC): 10.3 µM
- TGI (HOP-92 NSCLC): 28.9 µM
- GI50 (K-562 leukemia): 10.6 µM
- TGI (K-562 leukemia): > 100 µM
- GI50 (NCI-H460 lung): 19.7 µM
- TGI (NCI-H460 lung): 41.8 µM
- GI50 (RPMI-8226 leukemia): 2.73 µM
- TGI (RPMI-8226 leukemia): 24 µM
- GI50 (SF-295 CNS): 16.3 µM
- TGI (SF-295 CNS): 34.2 µM
- GI50 (SW-620 colon): 4.71 µM
- TGI (SW-620 colon): 29.8 µM
- GI50 (TK-10 renal): 8.32 µM
- TGI (TK-10 renal): 27.3 µM

SMILES: C=C1C(=O)O[C@H]2[C@H]1CC/C(COC(=O)NCc1c[nH]c3ccc(Cl)cc13)=C\CC[C@@]1(C)O[C@@H]21
- GI50 (786-0 renal): 1.07 µM
- TGI (786-0 renal): 2.49 µM
- GI50 (A498 renal): 1.81 µM
- TGI (A498 renal): 4.68 µM
- GI50 (CCRF-CEM leukemia): 0.341 µM
- TGI (CCRF-CEM leukemia): 1.88 µM
- GI50 (HOP-92 NSCLC): 1.46 µM
- TGI (HOP-92 NSCLC): 3.01 µM
- GI50 (K-562 leukemia): 0.416 µM
- TGI (K-562 leukemia): 2.02 µM
- GI50 (NCI-H460 lung): 1.96 µM
- TGI (NCI-H460 lung): 3.96 µM
- GI50 (RPMI-8226 leukemia): 0.836 µM
- TGI (RPMI-8226 leukemia): 3.51 µM
- GI50 (SF-295 CNS): 1.81 µM
- TGI (SF-295 CNS): 4.09 µM
- GI50 (SW-620 colon): 0.657 µM
- TGI (SW-620 colon): 2.2 µM
- GI50 (TK-10 renal): 1.61 µM
- TGI (TK-10 renal): 2.98 µM

SMILES: COc1ccc2c(c1)OC[C@@H]1c3cc4c(cc3O[C@H]21)OCO4
- TGI (786-0 renal): > 100 µM
- TGI (A498 renal): > 100 µM
- TGI (CCRF-CEM leukemia): > 100 µM
- TGI (HOP-92 NSCLC): > 100 µM
- TGI (K-562 leukemia): > 100 µM
- TGI (NCI-H460 lung): > 100 µM
- TGI (RPMI-8226 leukemia): > 100 µM
- TGI (SF-295 CNS): > 100 µM
- TGI (SW-620 colon): > 100 µM
- TGI (TK-10 renal): > 100 µM

SMILES: Cc1ccccc1CN1CC=c2ccccc2=N1
- TGI (786-0 renal): > 100 µM
- TGI (A498 renal): > 100 µM
- TGI (CCRF-CEM leukemia): > 100 µM
- TGI (HOP-92 NSCLC): > 100 µM
- TGI (K-562 leukemia): > 100 µM
- TGI (NCI-H460 lung): > 100 µM
- TGI (RPMI-8226 leukemia): > 100 µM
- TGI (SF-295 CNS): > 100 µM
- TGI (SW-620 colon): > 100 µM
- TGI (TK-10 renal): > 100 µM

SMILES: COc1cc(/C=C2\COc3ccc(O)c(O)c3C2=O)cc(OC)c1
- GI50 (786-0 renal): 1.54 µM
- TGI (786-0 renal): 3.78 µM
- GI50 (A498 renal): 5.12 µM
- TGI (A498 renal): 19.1 µM
- GI50 (CCRF-CEM leukemia): 0.505 µM
- TGI (CCRF-CEM leukemia): > 100 µM
- GI50 (HOP-92 NSCLC): 1.96 µM
- TGI (HOP-92 NSCLC): 6.08 µM
- GI50 (K-562 leukemia): 0.471 µM
- TGI (K-562 leukemia): > 100 µM
- GI50 (NCI-H460 lung): 1.81 µM
- TGI (NCI-H460 lung): 4.7 µM
- GI50 (RPMI-8226 leukemia): 0.558 µM
- TGI (RPMI-8226 leukemia): 4.17 µM
- GI50 (SF-295 CNS): 3.01 µM
- TGI (SF-295 CNS): 9.09 µM
- GI50 (SW-620 colon): 1.22 µM
- TGI (SW-620 colon): 4 µM
- GI50 (TK-10 renal): 2.26 µM
- TGI (TK-10 renal): 6.89 µM

SMILES: O=C(NC1=NC2C=CC([N+](=O)[O-])=CC2S1)C(=O)Nn1c(=S)[nH]c2ccccc2c1=O (stereo not drawn)
- TGI (786-0 renal): > 100 µM
- TGI (A498 renal): > 100 µM
- TGI (CCRF-CEM leukemia): > 100 µM
- TGI (HOP-92 NSCLC): > 100 µM
- TGI (K-562 leukemia): > 100 µM
- TGI (NCI-H460 lung): > 100 µM
- TGI (RPMI-8226 leukemia): > 100 µM
- TGI (SF-295 CNS): > 100 µM
- TGI (SW-620 colon): > 100 µM
- TGI (TK-10 renal): > 100 µM

SMILES: CO[C@@H]1[C@H](OC(=O)NC(=O)CCl)CC[C@]2(CO2)[C@H]1[C@@]1(C)O[C@@H]1CC=C(C)C
- TGI (786-0 renal): 30 µM and 47.7 µM
- GI50 (A498 renal): 38.6 µM
- TGI (A498 renal): 33.5 µM and 74 µM
- GI50 (CCRF-CEM leukemia): 1.98 µM and 5.49 µM
- TGI (CCRF-CEM leukemia): 18 µM and 28.4 µM
- TGI (HOP-92 NSCLC): 38.5 µM
- GI50 (K-562 leukemia): 32.7 µM
- TGI (K-562 leukemia): 58.5 µM and 129 µM
- GI50 (NCI-H460 lung): 0.755 µM and 2.6 µM
- TGI (NCI-H460 lung): 24.2 µM and 49.6 µM
- GI50 (RPMI-8226 leukemia): 5.73 µM and 6.14 µM
- TGI (RPMI-8226 leukemia): 32.9 µM and 51.4 µM
- GI50 (SF-295 CNS): 6.62 µM and 4.21 µM
- TGI (SF-295 CNS): 18.7 µM and 38 µM
- GI50 (SW-620 colon): 5.73 µM and 4.16 µM
- TGI (SW-620 colon): 51.7 µM and 41.3 µM
- GI50 (TK-10 renal): 14.1 µM
- TGI (TK-10 renal): 41.3 µM and 41.7 µM

SMILES: Cc1ccc(S(=O)(=O)N2CCc3ccc(O)c4c3C2Cc2cc(Cl)ccc2-4)cc1 (stereo not drawn)
- GI50 (786-0 renal): 2.3 µM
- TGI (786-0 renal): 9.59 µM
- GI50 (A498 renal): 0.234 µM
- TGI (A498 renal): 2.13 µM
- GI50 (CCRF-CEM leukemia): 0.922 µM
- TGI (CCRF-CEM leukemia): 14.1 µM
- GI50 (HOP-92 NSCLC): 0.354 µM
- TGI (HOP-92 NSCLC): 3.62 µM
- GI50 (K-562 leukemia): 1.16 µM
- TGI (K-562 leukemia): 14.8 µM
- GI50 (NCI-H460 lung): 1.03 µM
- TGI (NCI-H460 lung): 3.74 µM
- GI50 (RPMI-8226 leukemia): 0.875 µM
- TGI (RPMI-8226 leukemia): 2.6 µM
- GI50 (SF-295 CNS): 1.37 µM
- TGI (SF-295 CNS): 6.12 µM
- GI50 (SW-620 colon): 1.2 µM
- TGI (SW-620 colon): 9.35 µM
- GI50 (TK-10 renal): 2.18 µM
- TGI (TK-10 renal): 13.1 µM

SMILES: CCN(CC)C(=O)COc1ccc(Br)cc1Br
- TGI (786-0 renal): > 100 µM
- TGI (A498 renal): > 100 µM
- TGI (CCRF-CEM leukemia): > 100 µM
- TGI (HOP-92 NSCLC): > 100 µM
- TGI (K-562 leukemia): > 100 µM
- TGI (NCI-H460 lung): > 100 µM
- TGI (RPMI-8226 leukemia): > 100 µM
- TGI (SF-295 CNS): > 100 µM
- TGI (SW-620 colon): > 100 µM
- TGI (TK-10 renal): > 100 µM

SMILES: COc1ccc(-c2ccc(C3CC(c4ccc(Cl)cc4)=NN3)o2)c([N+](=O)[O-])c1 (stereo not drawn)
- GI50 (786-0 renal): > 100 µM
- TGI (786-0 renal): > 100 µM
- GI50 (A498 renal): > 100 µM
- TGI (A498 renal): > 100 µM
- GI50 (CCRF-CEM leukemia): > 100 µM
- TGI (CCRF-CEM leukemia): > 100 µM
- GI50 (HOP-92 NSCLC): > 100 µM
- TGI (HOP-92 NSCLC): > 100 µM
- GI50 (K-562 leukemia): > 100 µM
- TGI (K-562 leukemia): > 100 µM
- GI50 (NCI-H460 lung): > 100 µM
- TGI (NCI-H460 lung): > 100 µM
- GI50 (RPMI-8226 leukemia): > 100 µM
- TGI (RPMI-8226 leukemia): > 100 µM
- GI50 (SF-295 CNS): 43.5 µM
- TGI (SF-295 CNS): > 100 µM
- GI50 (SW-620 colon): > 100 µM
- TGI (SW-620 colon): > 100 µM
- GI50 (TK-10 renal): > 100 µM
- TGI (TK-10 renal): > 100 µM
